{"source": "patent US10391150B2", "about": "“Treatments for migraine and related disorders” (The University of Chicago, priority 2011, dated 2019)", "molecules": {"B1": {"name": "Interleukin 11 (protein, listed as Homo sapiens)", "chain": "MNCVCRLVLVVLSLWPDTAVAPGPPPGPPRVSPDPRAELDSTVLLTRSLLADTRQLAAQLRDKFPADGDHNLDSLPTLAMSAGALGALQLPGVLTRLRADLLSYLRHVQWLRRAGGSSLKTLEPELGTLQARLDRLLRRLQLLMSRLALPQPPPDPPAPPLAPPSSAWGGIRAAHAILGGLHLTLDWAVRGLLLLKTRL"}}, "key": {"[1]": {"test_system": "microglia in hippocampal slice cultures", "assay_type": "cell-based, rat"}, "[2]": {"test_system": "OS from cLTP in hippocampal slice cultures", "assay": "OS / reactive oxygen species generated from chemical long-term potentiation (cLTP) in slice cultures", "assay_type": "cell-based, rat", "details": "3 days treatment (IFN-γ 500 U/mL; IL-11; IGF-1), compared to shams", "procedure": "This beneficial effect of low-level IFN-γ is supported by results from rats. In rats, enrichment, which occurs with hippocampal learning, led to a significant elevation in hippocampal T-cells, IFN-γ and MBP.\nExperiments were performed in rat hippocampal slices cultures and SD induced as previously described (Pusic et al., 2011). Results were derived from n≥3-6/group. […] This is consistent with the neural activity increase seen after SD, which mimics the hyperexcitability evident in migraine patients.\nThis prompted the inventors to examine whether insulin could reduce SD susceptibility by increasing CA3 pyramidal neuron bursting. The inventors induced SD trans-synaptically in rat HSC using electrical stimuli (100 μs pulses @ 10 Hz for 1 s) ranging from 1 to 10,000 nC in order to determine SD threshold in sham and experimental groups (Pusic et al., 2011). Results were based on n≥3-6/group. […] This insulin dose approximates the pharmacological levels seen in humans treated with nasal insulin. […] The inventors hypothesized that the effect of insulin occurred through IGF-1 receptor cross-talk.\nThe inventors use a well-accepted method for inducing cLTP in slice cultures (Kraig et al., 2010; Otmakhov et al., 2004a; Otmakhov et al., 2004b; Kopec et al., 2006). The protocol consists of raising cAMP levels and increasing synaptic activity using rolipram/forskolin applied in a Mg^2+-free Ringer's solution (36° C.) for 5 min, then allowing slices to recover in normal media."}, "[3]": {"test_system": "SD in neocortex and hippocampus of anesthetized rat", "assay": "SD threshold in vivo (0.5 M KCl injection) after nasal administration", "details": "a day after nasal treatment (IGF-1 150 μg; IL-11 1 μg; IFN-γ 50,000 units); control 1-8 nL", "procedure": "Images show experimental setups for nasal administration and testing. (FIG. 7A) Nasal injection setup showing heat lamp and thermo-regulator that maintains temperature at 37° C. plus nose cone used to deliver isoflurane anesthesia. (FIG. 7B) Operator is shown administering nasal IGF-1 solution, which is performed in a fume hood to adequately vent isoflurane from nose cone. (FIG. 7C) Image illustrates standard electrophysiology setup. Anesthetized animal is placed into a standard electrophysiology holder and anesthesia maintained by a nose cone delivering 3% isoflurane in oxygen. Arterial oxygen saturation is monitored with a pulse-oximeter. Animals are warmed to 37.5° C. with a heating plate. SD is induced by progressively injecting larger volumes of 0.5 M KCl from an 8 μm diameter microelectrode. SD is registered with a second microelectrode used for DC recordings placed more caudally. After SD is evoked by a given injection pulse, the stimulating electrode is withdrawn and a volume re-injected under mineral oil. The diameter of the resultant KCl injection sphere is then measured off line using a compound microscope and the injection volume calculated. For example, in the above whole animal experiments it took 1-8 nL of 0.5 M KCl to evoke SD in control brain regions while after acute IGF-1 this amount rose to 67-109 nL. A day after IGF-1 treatment the volume needed to evoked SD was 34-48 nL. IFN-γ treatment required 338 nL of 0.5 M KCl a day after treatment and IL-11 required 67-200 nL.\nRats (FIGS. 6 and 7) are anesthetized with inhalational isoflurane and kept warm. While anesthetized, animals are placed in a supine position and 50 μL of sterile drug (i.e., IFN-γ, IGF-1, or IL-11) solution [or sterile saline vehicle (sham control)] is administered nasally by delivering 5 μL alternating between the left and right naris every 2 min over 20 minutes. Animals are given nasal drug treatments daily at the same time for 7 days before subsequent experiments. Doses for all 3 agents begin with the effective doses noted in our work using slice cultures (1×), then include others (0.1× and 10×). The inventors base this strategy on the fact that the effective culture dose for IGF-1 (40 ng/mL) closely approximates the dose used in vivo (143 μg/kg).\nThis approach was applied to measurement of SD threshold (FIG. 10) after treatment (FIG. 7) with nasally administered IGF-1 (150 μg), IL-11 (1 μg), IFN-γ (50,000 units), and insulin (20 μg). […] Resistance against SD was always greater in hippocampus compared to neocortex (n=4, controls; n=3, acutely after IGF-1; n=6, one day after IGF-1; n=6, one day after IL-11; n=6, one day after IFN-γ; and n=3, acutely after insulin).\nNasal administration followed by SD threshold evaluation in vivo. Vehicle or human recombinant IGF-1 (150 μg) is administered intranasally. SD threshold is established by injection of nanoliter volumes of 0.5 M KCl into neocortex or hippocampus (−2.0 mm from Bregma and 1.5 mm lateral from midline at either 750 μm or 2,800 μm into brain, respectively) using a thin-walled glass pipette and Picospritzer. Once a threshold is established, it is confirmed two more times, with an exemplary record from a vehicle-sham animal shown below. […] The diameter of the injected sphere is then measured using a compound microscope and used to calculate the injected volume, then moles of potassium. […]"}}, "note": "Where two headings read alike, the source gives them in different places.", "data": [{"molecule": "NC1=N[C@H](O)[C@H]2[C@H]3O[C@]4(O)O[C@@H]([C@@H](O)[C@@]2(N1)[C@@H]4O)[C@]3(O)CO", "note": "[TTX, tetrodotoxin]", "values": [{"measurement": "number of microglia moving long distances", "setting": "[1]", "value": "significantly increased the number of microglia moving long distances"}]}, {"molecule": "lipopolyssacharide [LPS]", "values": [{"measurement": "number of microglia moving long distances", "setting": "[1]; slice cultures, vital imaging", "value": "significantly decreased the number of microglia moving long distances"}]}, {"molecule": "B1", "values": [{"measurement": "OS / reactive oxygen species generated from cLTP", "setting": "[2]", "value": "significantly reduced OS"}, {"measurement": "volume of 0.5 M KCl needed to evoke SD", "setting": "[3]", "value": "67 to 200", "unit": "nL"}]}]}
